Among the test systems are CCRF-CEM leukemia; OVCAR-5 ovarian; NCI-H226 lung; SW-620 colon; T-47D breast; NCI-H460 lung; COLO 205 colon; IGROV1 ovarian; UACC-62 melanoma; MCF7 breast; 786-0 renal; SR leukemia; OVCAR-3 ovarian; MOLT-4 leukemia; K-562 leukemia; HL-60(TB) leukemia; SK-OV-3 ovarian; RPMI-8226 leukemia; NCI/ADR-RES ovarian; SF-268 CNS.
Test in all cases: inhibition of tumour cell growth, NCI panel, 48 h

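Step 1: Grow cells in 96-well plates. Step 2: Expose to compound for 48 hours at 5 concentrations. Step 3: Interpolate endpoints linearly; if unreached, use highest concentration. The concentration for full growth arrest is given as TGI.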

Take `C=C(Br)CN(CC(=C)Br)C(C)=O`: the TGI in the assay with CCRF-CEM leukemia, with OVCAR-5 ovarian, with NCI-H226 lung, in the assay with SW-620 colon, in the assay on T-47D breast and with NCI-H460 lung was > 100 µM each time. Also, the TGI with COLO 205 colon, in the assay on IGROV1 ovarian, in the assay on UACC-62 melanoma, with MCF7 breast, in the assay with 786-0 renal and in the assay with SR leukemia was > 100 µM in each case. The TGI in the assay with OVCAR-3 ovarian, in the assay with MOLT-4 leukemia, in the assay with K-562 leukemia, in the assay on HL-60(TB) leukemia, in the assay on SK-OV-3 ovarian and in the assay with RPMI-8226 leukemia was > 100 µM each time. Besides, the TGI in the assay on NCI/ADR-RES ovarian and with SF-268 CNS was > 100 µM each time.
On to `CCOC(=O)N1CCN(C(=O)Nc2cccc3ccccc23)CC1`, for which the TGI in the assay with CCRF-CEM leukemia, in the assay with OVCAR-5 ovarian, in the assay with NCI-H226 lung, with SW-620 colon, in the assay on T-47D breast and with NCI-H460 lung was > 10 µM each time. Also, the TGI with COLO 205 colon, in the assay with IGROV1 ovarian, with UACC-62 melanoma, in the assay with MCF7 breast, in the assay on SR leukemia and in the assay with OVCAR-3 ovarian was > 10 µM each time. Moreover, the TGI in the assay with MOLT-4 leukemia, in the assay with K-562 leukemia, with HL-60(TB) leukemia, in the assay on SK-OV-3 ovarian, with RPMI-8226 leukemia and in the assay with NCI/ADR-RES ovarian was > 10 µM throughout. Moreover, the TGI in the assay on SF-268 CNS is > 10 µM.
`O=C(CC(C(=O)c1ccsc1)c1ccccc1)c1cccs1` (stereo not drawn): the TGI with CCRF-CEM leukemia is > 100 µM; in the assay with OVCAR-5 ovarian, > 100 µM; with NCI-H226 lung it was > 100 µM; with SW-620 colon, > 100 µM; in the assay on T-47D breast it was 45.3 µM; in the assay with NCI-H460 lung it was > 100 µM. Besides, the TGI with COLO 205 colon was > 100 µM; in the assay on IGROV1 ovarian, > 100 µM; with UACC-62 melanoma, > 100 µM; in the assay with MCF7 breast, 79.6 µM; in the assay on 786-0 renal, > 100 µM; with SR leukemia, > 100 µM. Moreover, the TGI with OVCAR-3 ovarian, in the assay with MOLT-4 leukemia, in the assay with K-562 leukemia, in the assay with HL-60(TB) leukemia, in the assay on SK-OV-3 ovarian and with RPMI-8226 leukemia was > 100 µM throughout. The results for the TGI in the assay on NCI/ADR-RES ovarian and with SF-268 CNS were 67.9 µM and > 100 µM, respectively.
Take `CSc1c(C(=O)Nc2ccc(Cl)cc2)c(N)[nH]c(=O)c1C#N`: the TGI with CCRF-CEM leukemia was > 100 µM; in the assay with OVCAR-5 ovarian, > 89.2 µM; in the assay with NCI-H226 lung, > 100 µM; in the assay on SW-620 colon, > 100 µM; in the assay with T-47D breast, > 83.3 µM; in the assay on NCI-H460 lung, > 100 µM. The TGI is 45.8 µM in the assay with COLO 205 colon; > 100 µM with IGROV1 ovarian; > 100 µM in the assay on UACC-62 melanoma; > 78.6 µM in the assay with MCF7 breast; 77.9 µM in the assay with 786-0 renal; > 100 µM in the assay with SR leukemia. In addition, the TGI was 63 µM with OVCAR-3 ovarian; > 91.9 µM in the assay with MOLT-4 leukemia; > 100 µM in the assay on K-562 leukemia; > 100 µM with HL-60(TB) leukemia; > 100 µM in the assay on SK-OV-3 ovarian; > 100 µM in the assay on RPMI-8226 leukemia. The TGI in the assay with NCI/ADR-RES ovarian is > 76.5 µM; with SF-268 CNS, > 100 µM.
Regarding `Cc1nnc2sc(-c3ccc(-c4ccccc4Cl)o3)nn12`, the TGI was > 100 µM with CCRF-CEM leukemia; > 100 µM with OVCAR-5 ovarian; 83.5 µM in the assay on NCI-H226 lung; > 100 µM in the assay on SW-620 colon; 91.6 µM in the assay on T-47D breast; > 100 µM in the assay on NCI-H460 lung. The TGI was > 100 µM in the assay on COLO 205 colon; > 100 µM in the assay with IGROV1 ovarian; > 100 µM in the assay with UACC-62 melanoma; > 100 µM in the assay on MCF7 breast; 80.1 µM in the assay with 786-0 renal; 53.6 µM with SR leukemia. In addition, the TGI with OVCAR-3 ovarian is 84.7 µM; with MOLT-4 leukemia, 51.1 µM; with K-562 leukemia it was 56.8 µM; in the assay with HL-60(TB) leukemia, 63.3 µM; in the assay on SK-OV-3 ovarian, > 100 µM; with RPMI-8226 leukemia it was 60 µM. For the same molecule, the TGI with NCI/ADR-RES ovarian was 52.8 µM; in the assay with SF-268 CNS, > 100 µM.
`COc1ccc(-c2c(C#N)c(S)n(C3OC(CO)C(O)C(O)C3O)c(=O)c2C#N)cc1` (stereo not drawn): the TGI in the assay with CCRF-CEM leukemia, in the assay with OVCAR-5 ovarian, in the assay with NCI-H226 lung, in the assay on SW-620 colon, in the assay on T-47D breast and in the assay on NCI-H460 lung was > 100 µM in each case. Also, the TGI in the assay with IGROV1 ovarian, in the assay with UACC-62 melanoma, in the assay on MCF7 breast, in the assay on 786-0 renal, in the assay with SR leukemia and in the assay with OVCAR-3 ovarian was > 100 µM in each case. Also, the TGI with MOLT-4 leukemia, in the assay with K-562 leukemia, in the assay with HL-60(TB) leukemia, with SK-OV-3 ovarian, in the assay with RPMI-8226 leukemia and in the assay on NCI/ADR-RES ovarian was > 100 µM throughout. For the same molecule, the TGI with SF-268 CNS is > 100 µM.
Consider `O=C1CCc2cc3c(cc21)CC1(Cc2ccccc2C1)C3`, for which the TGI was 7.03 µM in the assay on CCRF-CEM leukemia; > 86.9 µM with OVCAR-5 ovarian; 67.7 µM with NCI-H226 lung; > 100 µM in the assay on SW-620 colon; > 100 µM in the assay on T-47D breast; > 100 µM in the assay on NCI-H460 lung. The TGI with COLO 205 colon is 17.2 µM; in the assay with IGROV1 ovarian, > 100 µM; in the assay with UACC-62 melanoma, > 88.3 µM; in the assay with MCF7 breast, > 100 µM; in the assay with 786-0 renal, > 100 µM; in the assay on SR leukemia, 5.18 µM. In addition, the TGI in the assay with OVCAR-3 ovarian was > 80.8 µM; in the assay on MOLT-4 leukemia, 12.7 µM; in the assay with K-562 leukemia, 5.38 µM; with HL-60(TB) leukemia, 5.26 µM; with SK-OV-3 ovarian, > 100 µM; with RPMI-8226 leukemia, 25.8 µM. Also, the figures for the TGI in the assay with NCI/ADR-RES ovarian and with SF-268 CNS were > 60.1 µM and > 100 µM, respectively.

Source of the values: PubChem BioAssay (NCI).
